Structures can show the parent of a compound that is named as a salt.
How the values were obtained:
[1] = system: Acinetobacter baumannii ATCC 19606; experiment: MIC determination by microbroth dilution; format: cell-based; conditions: ATCC19606
[2] = system: Strep. pyogenes ATCC 700294; experiment: MIC determination by microbroth dilution; format: cell-based, Streptococcus pyogenes; conditions: Streptococcus pyogenes, ATCC700294, read-out: MIC S. pyogenes
Vero epithelial cells = conditions: African green monkey
E. coli K12 = experiment: MIC determination by microbroth dilution; format: cell-based, Escherichia coli; conditions: Escherichia coli, K12
[3] = system: Klebsiella pneumoniae ATCC 33495; experiment: MIC determination by microbroth dilution; format: cell-based; conditions: ATCC33495
B. anthracis Sterne 34F2 = experiment: microbe, parasite or virus in culture; format: cell-based, Bacillus anthracis; conditions: Bacillus anthracis, STERNE34F2, read-out: MIC B. anthracis 34F2
in vitro = in vitro ADME; conditions: rat, plasma, pH 7.4
Procedure: Protein Binding: Protein binding of the compounds was determined using equilibrium dialysis. Biologically relevant concentrations of test compound were prepared (low and high) in rat plasma. 200 μL of the plasma sample was placed in the central chamber and 350 μL of blank isotonic phosphate buffer, pH 7.4 was added to the peripheral chamber of a dialysis device (MW cutoff 6000-8000 D, RED® device, Pierce Biotechnology Inc, Rockford, Ill., United States of America). The chambers were covered with a seal and incubated at 37° C. for four hours on a shaker set at 100 rpm. At the end of incubation, the volumes of plasma and recipient buffer were measured to identify and account for volume shift, if any. Aliquots of plasma and buffer were used to determine the drug concentration using an LC-MS/MS assay. The free fraction of the drug was calculated as ratio of the concentrations in the buffer and in plasma.
(§1) Following intravenous administration of 10 mg/kg in rats, 1329 follows a bi-exponential concentration/time profile with distinct distribution and elimination phases. Plasma protein binding of the compound is approximately 30%. 1329 is widely distributed with a steady state volume of distribution of 4.3 L/kg. It has a mean residence time in the body of approximately 5.3 hours.

[4] = system: Proteus mirabilis ATCC 25933; experiment: MIC determination by microbroth dilution; format: cell-based; conditions: ATCC25933
[5] = system: Burkholderia cepacia ATCC 25416; experiment: MIC determination by microbroth dilution; format: cell-based; conditions: ATCC25416, read-out: MIC B. cepcia
[6] = system: S. aureus 8325 or strain ATCC 29213; experiment: MIC determination by microbroth dilution; format: cell-based, Staphylococcus aureus; conditions: Staphylococcus aureus, ATCC29213; S. aureus 8325 or strain ATCC 29213 (for 1471-1544)
E. coli ribosomes = format: biochemical
M. tuberculosis H37Rv = experiment: MIC determination by microbroth dilution, anti-tuberculosis activity; format: cell-based, Mycobacterium tuberculosis
P. aeruginosa PAO1 = experiment: MIC determination by microbroth dilution; format: cell-based, Pseudomonas aeruginosa; conditions: Pseudomonas aeruginosa
[7] = system: Proteus vulgaris ATCC 33420; experiment: MIC determination by microbroth dilution; format: cell-based; conditions: ATCC33420
[8] = format: in vitro ADME; conditions: rat, microsomes, 1.5 h, 2 µM, pH 7.4
Procedure: In Vitro Microsomal Metabolic Stability: In vitro microsomal metabolic stability of the compounds was assessed using pooled rat liver microsomal preparations (Cellzdirect, Austin, Tex., United States of America). Reactions were started by adding 25 μL of microsomal protein solution (10 mg/mL) to 25 μL of test compound (20 μM) and 200 μL of NADPH regenerating solution (1.3 mM NADP+, 3.3 mM glucose-6-phosphate, 3.3 mM MgCl2 and 1 unit/mL glucose-6-phosphate dehydrogenase in pH 7.4 phosphate buffer solution). The reaction mixture was incubated at 37° C. and samples were taken at 0, 5, 10, 15, 30, 45, 60 and 90 minutes respectively. A reaction mixture containing above mentioned composition but instead using deactivated microsomes was used for control. All the samples were analyzed using LC-MS/MS assay. Disappearance of the parent compound was monitored during the incubation period. The percentage of parent compound remaining intact was estimated by comparing analyte concentrations before and after incubation.
as §1

[9] = system: Strenotrophomonas maltophilia ATCC 13637; experiment: MIC determination by microbroth dilution; format: cell-based

Question: Which MIC [1] does the source give for `CN[C@@H]1[C@H](O)[C@H](NC)C2O[C@]3(O)C(OC2[C@H]1O)O[C@H](C)C[C@H]3NC(=O)Cc1ccccn1` (stereo partly drawn) [Compound 1329, 3′-Dihydro-3′-deoxy-4(R)-(pyridin-2yl)acetylamino spectinomycin Dihydrochloride] here?
Answer: > 200 µg/mL

Question: What about the MIC [2] of the same compound?
Answer: 50 µg/mL

Question: And the “therapeutic index (IC50 divided by the MIC)” value (Vero epithelial cells)?
Answer: 5456

Question: What about the MIC (E. coli K12) of the same compound?
Answer: 200 µg/mL

Question: And the MIC [3]?
Answer: > 200 µg/mL

Question: And the MIC (B. anthracis Sterne 34F2)?
Answer: 50 µg/mL

Question: What about the fraction unbound at 4 h (in vitro) of the same compound?
Answer: ~0.7

Question: What about the MIC [4] of the same compound?
Answer: > 200 µg/mL

Question: What about the MIC [5] of the same compound?
Answer: > 200 µg/mL

Question: What about the MIC [6] of the same compound?
Answer: 50 µg/mL

Question: What about the IC50 (E. coli ribosomes; E. coli S30 system, FIG. 4, read-out: concentration causing 50% reduction in the synthesis of luciferase) of the same compound?
Answer: 660 nM

Question: And the “IC50, 50% inhibition of luciferase biosynthesis in S30 assay” value (E. coli ribosomes; E. coli S30 transcription/translation assay)?
Answer: 0.29 µg/mL

Question: And the “Activity (MIC) of 1329 compared to streptomycin” value (M. tuberculosis H37Rv)?
Answer: 0.8-1.6

Question: What about the MIC (M. tuberculosis H37Rv; Mycobacterium tuberculosis, H37RV, 168 h, read-out: MIC) of the same compound?
Answer: 0.8 µg/mL

Question: And the MIC (P. aeruginosa PAO1)?
Answer: 100 µg/mL

Question: And the MIC [7]?
Answer: > 200 µg/mL

Question: What about the “parent drug remaining intact” value [8] of the same compound?
Answer: 95%

Question: And the MIC [9]?
Answer: 200 µg/mL

— patent publication US9284325B2, “Spectinamides as anti-tuberculosis agents” (UNIVERSITY OF TENNESSEE RESEARCH FOUNDATION, priority 2009, dated 2016)
